Experimental data from US12697325B2 (TENNOR THERAPEUTICS (SUZHOU) LIMITED, priority 2021, dated 2026).

Assay: Stability of sulbactam sodium and avibactam sodium in different pH buffers (HPLC purity)
Assay type: physicochemical
Conditions: 20° C., 24 h; for Purity in pH buffer (monomer): purity 100% at 0 h, alone; for Purity in pH buffer (in mixture): mixture 4:1 (sulbactam sodium 1 mg/mL, avibactam sodium 0.25 mg/mL)

## NC(=O)[C@@H]1CC[C@@H]2CN1C(=O)N2OS(=O)(=O)O [Avibactam, [(2S,5R)-2-carbamoyl-7-oxo-1,6-diazabicyclo [3.2.1]oct-6-yl] bisulfate]
pH 4.0 buffer
  Purity in pH buffer (monomer): −24.20%
  Purity in pH buffer (in mixture): −23.74%
pH 4.5 buffer
  Purity in pH buffer (monomer): −2.31%
  Purity in pH buffer (in mixture): −1.42%
pH 5.0 buffer
  Purity in pH buffer (monomer): −0.71%
  Purity in pH buffer (in mixture): −0.99%
pH 5.5 buffer
  Purity in pH buffer (monomer): −0.77%
  Purity in pH buffer (in mixture): −0.54%
pH 6.0 buffer
  Purity in pH buffer (monomer): −1.75%
  Purity in pH buffer (in mixture): −1.76%
pH 7.3 buffer
  Purity in pH buffer (monomer): −0.81%
  Purity in pH buffer (in mixture): −1.06%
pH 8.0 buffer
  Purity in pH buffer (monomer): −8.87%
  Purity in pH buffer (in mixture): −8.81%
